Reference: patent publication US5610310A, “Cyclic lipid derivatives as potent PAF antagonists” (Pohang Iron & Steel Co., Ltd, priority 1995, dated 1997)

Assays:
[1] = tested on: PAF-induced [^14 C]-serotonin release, rabbit platelets; assay: Inhibitory action on PAF-induced [^14 C]-serotonin release; type: cell-based, rabbit (New Zealand white); details: Oryctolagus cuniculus, Platelet, PAF 1×10^-9 M; for inhibition at 0.2 µM: test compound 2 × 10^-7 M; for inhibition at 0.05 µM: test compound 5 × 10^-8 M; for inhibition at 0.005 µM: test compound 5 × 10^-9 M
Description: Inhibitory action on PAF-induced [^14 C]-serotonin release
Blood was collected from the hearts of conscious New Zealand white male rabbits weighing 2 to 3 kg. The blood was immediately subjected to a centrifuge at 1400 rpm for 10 minutes to obtain platelet rich plasma(PRP).PRP was incubated with a trace mount of [^14 C]-serotonin for 20 minutes at 22° C. Prelabelled platelets were prepared by centrifugation at 3500 rpm for 10 minutes. The test compound was added to 80 μl of [^14 C] serotonin-labeled platelets in plastic test tubes, and the mixture was incubated for 2 minutes. PAF (1×10^-9 M) was then added to the reaction mixture and incubated for additional 2 minutes at which time 10 μl of cold formaldehyde was added to stop the reactions. The tubes were immediately cooled to 4° C. and centrifuged at 12000 rpm for 2 minutes. The supernatants (80 μl) were assayed for percentage of [^14 C] serotonin release by the conventional methods of measuring ^14 C counts.

[2] = biological target: T1, PAF receptor (rabbit platelet membranes) (Oryctolagus cuniculus, UniProt G1TEI7); assay: PAF Receptor Binding Assay; details: 0.6 nM [^3 H]C18 -PAF, 60 minutes, room temperature, calculated as IC50/2
T1 construct: Rabbit platelets were prepared by centrifugation and washing; tissue Pel-Freez (Rogers, AR); host or cells: rabbit platelets (washed, from citrated whole blood; lysed membranes)
Description: PAF Receptor Binding Assay Citrated whole rabbit blood was obtained from Pel-Freez(Rogers, AR). Rabbit platelets were prepared by centrifugation and washing. The platelets were lysed by freeze-thawing and sonification; Platelet membranes were prepared by centrifugation and washing. Final membrane preparation were stored frozen in 10 mM Tris/5 mM MgCl2 /2 mM EDTA (TME buffer, pH 7.0) with 0.25M sucrose added for membrane stabilization. […] The final volume of the assay was 100 μl. […] The […] and removed. The bound radioactivity was quantitated with a Berthold TLC-Linear Analyzer model LB2842. […] Experiments were repeated at least once. […] Ki values of inhibitory binding constants were calculated according to the methods of the literature[Cheng et al., Biochem.

[3] = tested on: PAF-induced platelet aggregation, rabbit platelet-rich plasma; assay: Inhibitory action on PAF-induced platelet aggregation; type: cell-based, rabbit (New Zealand white); details: Oryctolagus cuniculus, rabbit PRP, PAF 5×10^-9 M, 37° C.
Description: Inhibitory action on PAF-induced platelet aggregation Blood was collected from the […] of conscious New Zealand white male rabbits weighing 2 to 3 kg using citric acid as an anticoagulant (one volume pan of 3% citric acid relative to 9 volume parts of the whole blood). […] PRP was diluted with PPP to adjust the number of platelets to about 3×10^5 /μl. […] Platelet aggregation was then examined by means of turbidimetry [Born, Nature, 194, 927(1962)] with dual channel aggegometer (Chrono-Log. Corp., Havertown, Pa.). As the control, physiological saline without test sample was used. The platelet aggregation inhibiting activities of the test sample are expressed as IC50, that is the concentration of the compound at which 50% of the aggregation is inhibited.

T1 sequence (G1TEI7 1-342): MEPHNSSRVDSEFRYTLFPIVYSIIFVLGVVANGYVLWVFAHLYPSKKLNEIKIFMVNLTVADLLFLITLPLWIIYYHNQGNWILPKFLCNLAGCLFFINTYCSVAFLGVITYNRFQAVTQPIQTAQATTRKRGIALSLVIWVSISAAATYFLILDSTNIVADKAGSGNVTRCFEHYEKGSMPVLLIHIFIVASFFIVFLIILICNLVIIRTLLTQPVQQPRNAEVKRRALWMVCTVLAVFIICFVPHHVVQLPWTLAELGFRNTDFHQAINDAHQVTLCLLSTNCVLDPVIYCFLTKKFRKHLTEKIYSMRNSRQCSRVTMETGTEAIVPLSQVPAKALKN

Compound	inhibition at 0.2 µM [1] [%]	inhibition at 0.05 µM [1] [%]	Ki [2] [nM]	IC50 [3] [nM]	inhibition at 0.005 µM [1] [%]
CCCCCCCCCCCCCCCCCCNC(=O)OCC1(COC(=O)CCCCC[n+]2ccccc2)COC1 [Example 12, N-[5-[[[3-[[(Octadecylcarbamoyl)oxy]methyl]-3-oxetanyl]methoxy]carbonyl]pentyl]pyridinium bromide]	94	58			
CCCCCCCCCCCCCCCCOCC1(COC(=O)CCCCC[n+]2ccccc2)COC1 [Example 10, N-[5-[[[3-[(Hexadecyloxy)methyl]-3-oxetanyl]methoxy]carbonyl]pentyl]pyridinium bromide]	86	43			
CCCCCCCCCCCCCCCCOC[C@H]1C[C@@H](COC(=O)N(Cc2cccc[n+]2CC)C(C)=O)O1 (relative stereo) [Example 1, cis-2-[[N-Acetyl-N-[[[2-[(hexadecyloxy)methyl]-4-oxetanyl]methoxy]carbonyl]amino]methyl]-1-ethyl-pyridinium iodide]		51	21.2	95	
CCCCCCCCCCCCCCCCCCNC(=O)OC[C@H]1C[C@H](COC(=O)N(Cc2cccc[n+]2CC)C(C)=O)O1 (relative stereo) [Example 5, trans-2-[[N-Acetyl-N-[[[4-[[(octadecylcarbamoyl)oxy]methyl]-2-oxetanyl]methoxy]carbonyl]amino]methyl]-1-ethyl-pyridinium iodide]	97				
CCCCCCCCCCCCCCCCCCNC(=O)OCC1(COC(=O)N(Cc2cccc[n+]2CC)C(C)=O)COC1 [Example 6, 2-[[N-Acetyl-N-[[[3-[[(octadecylcarbamoyl)oxy]methyl]-3-oxetanyl]methoxy]carbonyl]amino]methyl]-1-ethyl-pyridinium iodide]	98	96			
CCCCCCCCCCCCCCCCCCNC(=O)OC[C@@H]1C[C@H](COC(=O)N(Cc2cccc[n+]2CC)C(C)=O)O1 (relative stereo) [Example 3, cis-2-[[N-Acetyl-N-[[[4-[[(octadecylcarbamoyl)oxy]methyl]-2-oxetanyl]methoxy]carbonyl]amino]methyl]-1-ethyl-pyridinium iodide]	97				58
CCCCCCCCCCCCCCCCCCNC(=O)OCC1(COC(=O)N(Cc2cccc[n+]2CC)C(C)=O)CCC1 [Example 14, 2-[[N-Acetyl-N-[[[1-[[(octadecylcarbamoyl)oxy]methyl]-1-cyclobutyl]methoxy]carbonyl]amino]methyl]-1-ethyl-pyridinium iodide]	99	98	6.6	118	18
CCCCCCCCCCCCCCCCCCNC(=O)OCC1(COC(=O)CCCCC[n+]2ccsc2)COC1 [Example 13, 3-[5-[[[3-[[(Octadecylcarbamoyl)oxy]methyl]-3-oxetanyl]methoxy]carbonyl]pentyl]thiazolium bromide]	92		30.5	382	
CCCCCCCCCCCCCCCCOC[C@H]1C[C@H](COC(=O)N(Cc2cccc[n+]2CC)C(C)=O)O1 (relative stereo) [Example 2, trans-2-[[N-Acetyl-N-[[[4-[(hexadecyloxy)methyl]-2-oxetanyl]methoxy]carbonyl]amino]methyl]-1-ethyl-pyridinium iodide]	98	93	14.7	57	44
